Patent publication US12661345B2, “Compositions for the treatment of hypertension” (The George Institute for Global Health, priority 2017, dated 2026)

Legend:
[1] = system: participants with migraine; experiment: Office blood pressure in 12-week double blind randomized 3×3 factorial trial; format: in vivo, human
Method: (§1) There was a 4 week screening period and another 4-week post study drug observational period.
There was a 4-week screening period and another 4-week post study drug observational period.
(§2) Group 2 received the low-dose BP lowering combination and simvastatin (i.e., telmisartan 20 mg+amlodipine 2.5 mg+simvastatin). Group 3 received the low-dose BP lowering combination and placebo (i.e., telmisartan 20 mg+amlodipine 2.5 mg+placebo). […] Group 9 received double placebo.
Office BP was measured following the recommendations of the Australian National Heart Foundation. Participants were rested in the seated position for 5 minutes, an appropriate cuff size was selected and 3 measurements of BP were recorded using an Omron HEM907 monitor or equivalent validated automated digital BP monitor. Principles of automated office BP measurements were applied whereby the patient was left alone during BP recording.
(§3) All analyses of study outcomes were conducted according to the principle of intention-to-treat. The analyses of continuous outcomes such SBP and LDL-cholesterol at 12 weeks was performed using ANCOVA including the treatment arm and baseline values as a covariate. Additional analyses included interim measurements in a longitudinal model including treatment arm, visit, and treatment by visit interaction as well as the baseline measurement. Within-patient correlations were modelled using generalized estimating equations. A similar approach was applied to binary endpoints with log-binomial regression used in place of linear regression. There were also pre-defined subgroup analyses, baseline BP, baseline LDL, gender and age.

LDL = LDL laboratory test in the 3×3 factorial trial; format: in vivo, human; conditions: Week 12 v/s Baseline
Method: as §1, §2
Change in DBP and SBP • 2. Change in LDL Secondary Outcomes: • 1. Tolerability: • a. […] Difference between groups in participant withdrawals from treatment • 2. Safety: Percentage with any severe adverse event (SAE) • 3. Medication adherence: self-reported measures, pill counts BP Measurement:
Potassium (K+), sodium (Na+), serum creatinine and LDL were measured at screening and at the 12-week end of treatment follow-up visit.
as §3

[2] = system: participants with migraine; experiment: Subject status / participant withdrawals by visit in the 3×3 factorial trial
[3] = Randomization (baseline, before treatment)
[4] = Randomization, BP arm versus placebo, interval in brackets
[5] = Week 4, BP arm versus placebo, interval in brackets
[6] = Week 12, BP arm versus placebo, interval in brackets
[7] = Week 16 (after 4-week post study drug period)
[8] = Week 16, BP arm versus placebo, interval in brackets
[9] = overall line, BP arm versus placebo, interval in brackets, footnote # not given

CC(C)NCC(O)COc1cccc2ccccc12 (stereo not shown) [Propranolol, propranolol]
Diastolic Blood Pressure Mean (SD) [1, 3]: 10 85.1 (12.48) mmHg
Diastolic Blood Pressure Q1 [1, 3]: 75.7 mmHg
Diastolic Blood Pressure Q2 [1, 3]: 77.7 mmHg
Diastolic Blood Pressure Q3 [1, 3]: 95.7 mmHg
Diastolic Blood Pressure min [1, 3]: 73 mmHg
Systolic Blood Pressure Mean (SD) [1, 3]: 10 130.4 (16.09) mmHg
Systolic Blood Pressure Q1 [1, 3]: 116.7 mmHg
Systolic Blood Pressure Q2 [1, 3]: 129.3 mmHg
Systolic Blood Pressure Q3 [1, 3]: 146.3 mmHg
Systolic Blood Pressure max [1, 3]: 153 mmHg
Diastolic Blood Pressure Mean difference [1, 4]: 3.67 (−4.68, 12.02) mmHg
Systolic Blood Pressure Mean difference [1, 4]: 6.52 (−4.86, 17.91) mmHg
Diastolic Blood Pressure Mean (SD) ([1]; Week 4): 10 75.5 (9.75) mmHg
Diastolic Blood Pressure Q1 ([1]; Week 4): 69.0 mmHg
Diastolic Blood Pressure Q2 ([1]; Week 4): 73.3 mmHg
Diastolic Blood Pressure Q3 ([1]; Week 4): 83.3 mmHg
Diastolic Blood Pressure max ([1]; Week 4): 89 mmHg
Diastolic Blood Pressure min ([1]; Week 4): 62 mmHg
Diastolic Blood Pressure, Change from Baseline, Mean (SD) ([1]; Week 4): 10 −9.6 (5.66)
Diastolic Blood Pressure, Change from Baseline, Q1 ([1]; Week 4): −13.0
Diastolic Blood Pressure, Change from Baseline, Q2 ([1]; Week 4): −10.3
Diastolic Blood Pressure, Change from Baseline, Q3 ([1]; Week 4): −4.3
Diastolic Blood Pressure, Change from Baseline, max ([1]; Week 4): −1
Diastolic Blood Pressure, Change from Baseline, min ([1]; Week 4): −19
Systolic Blood Pressure Mean (SD) ([1]; Week 4): 10 121.3 (14.92) mmHg
Systolic Blood Pressure Q1 ([1]; Week 4): 108.7 mmHg
Systolic Blood Pressure Q2 ([1]; Week 4): 116.8 mmHg
Systolic Blood Pressure Q3 ([1]; Week 4): 135.3 mmHg
Systolic Blood Pressure max ([1]; Week 4): 146 mmHg
Systolic Blood Pressure, Change from Baseline, Mean (SD) ([1]; Week 4): 10 −9.1 (5.63)
Systolic Blood Pressure, Change from Baseline, Q1 ([1]; Week 4): −13.3
Systolic Blood Pressure, Change from Baseline, Q2 ([1]; Week 4): −8.5
Systolic Blood Pressure, Change from Baseline, Q3 ([1]; Week 4): −5.0
Systolic Blood Pressure, Change from Baseline, max ([1]; Week 4): −1
Systolic Blood Pressure, Change from Baseline, min ([1]; Week 4): −18
Diastolic Blood Pressure Mean difference [1, 5]: −3.53 (−11.29, 4.22) mmHg
Systolic Blood Pressure Mean difference [1, 5]: −2.60 (−14.65, 9.45) mmHg
Diastolic Blood Pressure, Change from Baseline, Mean difference ([1]; Week 4, interval in brackets): −7.53 (−13.19, −1.88)
Systolic Blood Pressure, Change from Baseline, Mean difference ([1]; Week 4, interval in brackets): −9.23 (−17.31, −1.16)
Diastolic Blood Pressure Mean (SD) ([1]; Week 8): 10 75.0 (8.82) mmHg
Diastolic Blood Pressure Q1 ([1]; Week 8): 66.3 mmHg
Diastolic Blood Pressure Q2 ([1]; Week 8): 76.5 mmHg
Diastolic Blood Pressure Q3 ([1]; Week 8): 83.3 mmHg
Diastolic Blood Pressure max ([1]; Week 8): 85 mmHg
Diastolic Blood Pressure min ([1]; Week 8): 61 mmHg
Diastolic Blood Pressure, Change from Baseline, Mean (SD) ([1]; Week 8): 10 −10.1 (6.39)
Diastolic Blood Pressure, Change from Baseline, Q1 ([1]; Week 8): −12.7
Diastolic Blood Pressure, Change from Baseline, Q2 ([1]; Week 8): −10.8
Diastolic Blood Pressure, Change from Baseline, Q3 ([1]; Week 8): −7.0
Diastolic Blood Pressure, Change from Baseline, max ([1]; Week 8): 0
Diastolic Blood Pressure, Change from Baseline, min ([1]; Week 8): −22
Systolic Blood Pressure Mean (SD) ([1]; Week 8): 10 118.6 (12.56) mmHg
Systolic Blood Pressure Q1 ([1]; Week 8): 112.3 mmHg
Systolic Blood Pressure Q2 ([1]; Week 8): 119.5 mmHg
Systolic Blood Pressure Q3 ([1]; Week 8): 127.0 mmHg
Systolic Blood Pressure max ([1]; Week 8): 135 mmHg
Systolic Blood Pressure min ([1]; Week 8): 95 mmHg
Systolic Blood Pressure, Change from Baseline, Mean (SD) ([1]; Week 8): 10 −11.8 (11.44)
Systolic Blood Pressure, Change from Baseline, Q1 ([1]; Week 8): −18.0
Systolic Blood Pressure, Change from Baseline, Q2 ([1]; Week 8): −11.8
Systolic Blood Pressure, Change from Baseline, Q3 ([1]; Week 8): −4.3
Systolic Blood Pressure, Change from Baseline, max ([1]; Week 8): 6
Systolic Blood Pressure, Change from Baseline, min ([1]; Week 8): −30
Diastolic Blood Pressure Mean difference ([1]; Week 8, BP arm versus placebo, interval in brackets): −3.67 (−10.23, 2.90) mmHg
Diastolic Blood Pressure, Change from Baseline, Mean difference ([1]; Week 8, interval in brackets): −7.67 (−12.92, −2.41)
Systolic Blood Pressure, Change from Baseline, Mean difference ([1]; Week 8, interval in brackets): −7.30 (−17.13, 2.53)
Diastolic Blood Pressure, Change from Baseline, Mean (SD) ([1]; Week 12): 10 −10.5 (6.44)
Diastolic Blood Pressure, Change from Baseline, Q1 ([1]; Week 12): −16.7
Diastolic Blood Pressure, Change from Baseline, Q2 ([1]; Week 12): −9.3
Diastolic Blood Pressure, Change from Baseline, Q3 ([1]; Week 12): −4.3
Diastolic Blood Pressure, Change from Baseline, max ([1]; Week 12): −3
Diastolic Blood Pressure, Change from Baseline, min ([1]; Week 12): −22
Systolic Blood Pressure, Change from Baseline, Mean (SD) ([1]; Week 12): 10 −10.9 (10.07)
Systolic Blood Pressure, Change from Baseline, Q1 ([1]; Week 12): −17.0
Systolic Blood Pressure, Change from Baseline, Q2 ([1]; Week 12): −12.8
Systolic Blood Pressure, Change from Baseline, Q3 ([1]; Week 12): −4.0
Systolic Blood Pressure, Change from Baseline, max ([1]; Week 12): 5
Systolic Blood Pressure, Change from Baseline, min ([1]; Week 12): −30
Diastolic Blood Pressure Mean (SD) ([1]; Week 12 (end of treatment)): 10 74.6 (15.07) mmHg
Diastolic Blood Pressure Q1 ([1]; Week 12 (end of treatment)): 60.7 mmHg
Diastolic Blood Pressure Q2 ([1]; Week 12 (end of treatment)): 70.0 mmHg
Diastolic Blood Pressure Q3 ([1]; Week 12 (end of treatment)): 85.7 mmHg
Diastolic Blood Pressure max ([1]; Week 12 (end of treatment)): 97 mmHg
Diastolic Blood Pressure min ([1]; Week 12 (end of treatment)): 54 mmHg
Systolic Blood Pressure Mean (SD) ([1]; Week 12 (end of treatment)): 10 119.5 (17.83) mmHg
Systolic Blood Pressure Q2 ([1]; Week 12 (end of treatment)): 117.5 mmHg
Systolic Blood Pressure Q3 ([1]; Week 12 (end of treatment)): 135.3 mmHg
Systolic Blood Pressure max ([1]; Week 12 (end of treatment)): 145 mmHg
Systolic Blood Pressure min ([1]; Week 12 (end of treatment)): 88 mmHg
Diastolic Blood Pressure Mean difference [1, 6]: −3.50 (−14.77, 7.77) mmHg
Systolic Blood Pressure Mean difference [1, 6]: −1.77 (−14.87, 11.34) mmHg
Diastolic Blood Pressure, Change from Baseline, Mean difference ([1]; Week 12, interval in brackets): −7.50 (−13.65, −1.35)
Systolic Blood Pressure, Change from Baseline, Mean difference ([1]; Week 12, interval in brackets): −8.40 (−16.80, −0.00)
Change in DBP from baseline to 12 weeks Mean (SD) ([1]; Week 12 v/s Baseline): 10 −10.5 (6.44) mmHg
Change in DBP from baseline to 12 weeks Q1 ([1]; Week 12 v/s Baseline): −16.7 mmHg
Change in DBP from baseline to 12 weeks Q2 ([1]; Week 12 v/s Baseline): −9.3 mmHg
Change in DBP from baseline to 12 weeks Q3 ([1]; Week 12 v/s Baseline): −4.3 mmHg
Change in DBP from baseline to 12 weeks max ([1]; Week 12 v/s Baseline): −3 mmHg
Change in DBP from baseline to 12 weeks min ([1]; Week 12 v/s Baseline): −22 mmHg
Change in SBP from baseline to 12 weeks Mean (SD) ([1]; Week 12 v/s Baseline): 10 −10.9 (10.07) mmHg
Change in SBP from baseline to 12 weeks Q1 ([1]; Week 12 v/s Baseline): −17.0 mmHg
Change in SBP from baseline to 12 weeks Q2 ([1]; Week 12 v/s Baseline): −12.8 mmHg
Change in SBP from baseline to 12 weeks Q3 ([1]; Week 12 v/s Baseline): −4.0 mmHg
Change in SBP from baseline to 12 weeks max ([1]; Week 12 v/s Baseline): 5 mmHg
Change in SBP from baseline to 12 weeks min ([1]; Week 12 v/s Baseline): −30 mmHg
Diastolic Blood Pressure, Change from Baseline, Mean (SD) ([1]; Week 16): 9 −3.9 (4.82)
Diastolic Blood Pressure, Change from Baseline, Q1 ([1]; Week 16): −7.7
Diastolic Blood Pressure, Change from Baseline, Q2 ([1]; Week 16): −2.7
Diastolic Blood Pressure, Change from Baseline, Q3 ([1]; Week 16): −0.7
Diastolic Blood Pressure, Change from Baseline, max ([1]; Week 16): 4
Diastolic Blood Pressure, Change from Baseline, min ([1]; Week 16): −11
Systolic Blood Pressure, Change from Baseline, Mean (SD) ([1]; Week 16): 9 −2.3 (5.95)
Systolic Blood Pressure, Change from Baseline, Q1 ([1]; Week 16): −6.3
Systolic Blood Pressure, Change from Baseline, Q2 ([1]; Week 16): −3.3
Systolic Blood Pressure, Change from Baseline, Q3 ([1]; Week 16): 2.3
Systolic Blood Pressure, Change from Baseline, max ([1]; Week 16): 6
Systolic Blood Pressure, Change from Baseline, min ([1]; Week 16): −11
Diastolic Blood Pressure Mean (SD) [1, 7]: 9 82.0 (11.14) mmHg
Diastolic Blood Pressure Q1 [1, 7]: 73.3 mmHg
Diastolic Blood Pressure Q2 [1, 7]: 82.3 mmHg
Diastolic Blood Pressure Q3 [1, 7]: 87.3 mmHg
Diastolic Blood Pressure min [1, 7]: 70 mmHg
Systolic Blood Pressure Mean (SD) [1, 7]: 9 129.6 (15.12) mmHg
Systolic Blood Pressure Q1 [1, 7]: 119.7 mmHg
Systolic Blood Pressure Q2 [1, 7]: 129.3 mmHg
Systolic Blood Pressure Q3 [1, 7]: 136.7 mmHg
Systolic Blood Pressure max [1, 7]: 159 mmHg
Diastolic Blood Pressure Mean difference [1, 8]: 0.97 (−7.91, 9.85) mmHg
Systolic Blood Pressure Mean difference [1, 8]: 8.19 (−2.91, 19.28) mmHg
Diastolic Blood Pressure, Change from Baseline, Mean difference ([1]; Week 16, interval in brackets): −3.93 (−9.96, 2.11)
Systolic Blood Pressure, Change from Baseline, Mean difference ([1]; Week 16, interval in brackets): 0.10 (−6.97, 7.17)
Diastolic Blood Pressure # Mean difference [1, 9]: −3.57 (−11.29, 4.16) mmHg
Systolic Blood Pressure # Mean difference [1, 9]: −1.68 (−12.28, 8.92) mmHg
Change in LDL from baseline to 12 weeks Mean (SD) (LDL): 10 −0.9 (1.03) mmol/l
Change in LDL from baseline to 12 weeks Q1 (LDL): -1.3 mmol/L
Change in LDL from baseline to 12 weeks Q2 (LDL): -0.7 mmol/L
Change in LDL from baseline to 12 weeks Q3 (LDL): -0.2 mmol/L
Change in LDL from baseline to 12 weeks max (LDL): 0 mmol/L
Change in LDL from baseline to 12 weeks min (LDL): -3 mmol/L
Discontinuing: Deceased (percent) ([2]; Week 4): (0.0%)
Discontinuing: Deceased (percent) ([2]; Week 8): (0.0%)
Discontinuing: Deceased (percent) ([2]; Week 12): (0.0%)
